Key:
[1] = system: Molm-13 cells; test: Molm-13 cell viability (CellTiter-Glo); assay type: cell-based; settings: Homo sapiens, MOLM-13, read-out: % Inhibition (MOLM-13 Cell Viability); for cytotoxicity at 10 µM: compound concentration 10 μM; for cytotoxicity at 0.3 µM: compound concentration 0.3 μM
Method in brief: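 Molm-13 (RPMI-1640, 10% FBS) and H1048 (DMEM:F12, 5% FBS with supplements) plated at 20,000 cells/well, treated with compound or 0.1% DMSO for 3 days at 37° C., 5% CO2. Viability read by CellTiter-Glo luminescence after 10 min.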

[2] = molecular target: T1, GSPT1 (Homo sapiens, UniProt P15170); test: GSPT1 protein levels by Western Blot analysis; assay type: cell-based; settings: DMSO = 100.00; for remaining activity at 0.1 µM: 100 nM compound concentration; for remaining activity at 1 µM: 1 μM compound concentration
T1 construct: Whole cell extracts were prepared using RIPA buffer according to manufacturer's protocol (Pierce); endogenous in cells
Procedure: Cells were lysed using RIPA Buffer (Pierce) and a Western Blot analysis was performed using anti-GSPT1 and anti-β-actin antibodies. FIG. 11B is a graph showing the expression levels of GSPT1 protein in Molm-13 (AML) cells. Protein expression levels were measured using the LiCor Odyssey instrumentation and methods.
Western Blot Protocol: Cell lines were grown in RPMI 1640 supplemented with streptomycin, penicillin and 10% fetal bovine serum.
Cells were cultured at approximately 10^6 cells per mL and incubated in DMSO or each of the indicated compounds for 6-8 h. Whole cell extracts were prepared using RIPA buffer according to manufacturer's protocol (Pierce). Briefly, 2×10^6 cells were washed once in PBS, the cell pellets were resuspended in RIPA buffer and allowed to incubate for 15 minutes on ice. Cells debris was removed by centrifugation and the cleared whole cell lysates were transferred to new tubes for further analysis.
For Western blot analysis, whole cell protein extracts were separated on 4-12% SDS-polyacrylamide gels, transferred to nitrocellulose, and probed with the indicated primary antibodies. Membranes were subsequently washed and probed with the appropriate IRDye secondary antibodies (LI-COR). The signal was detected using the Odyssey Imaging System (LI-COR).
GSPT1: Rabbit anti-GSPT1 was obtained from Abcam, ab126090 (Cambridge, Eng.)

[3] = system: IL-6; test: IL-6 expression in LPS stimulated PBMCs (Meso Scale); assay type: cell-based, human; settings: Homo sapiens, PBMC, LPS-stimulated PBMCs; for inhibition at 1 µM: compound concentration 1 μM; for inhibition at 10 µM: compound concentration 10 μM
Method in brief: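 Thawed human PBMCs at 200,000 cells/well in RPMI-1640/10% FBS were pretreated with compound or DMSO for 1 h, then stimulated with 100 ng/mL LPS for 18–24 h. Supernatant IL-6 was measured by Meso Scale assay and expressed as % of LPS-induced activity.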

[4] = system: MDA-MB-231 cells; test: MDA-MB-231 cell viability (CellTiter-Glo); assay type: cell-based; settings: Homo sapiens, 72 h, 3 days, DMSO = 100.00; for viability at 1 µM: 1 μM compound concentration; for viability at 10 µM: 10 μM compound concentration
Procedure: (§1) Molm-13 cells were cultivated in RPMI-1640 (10% FBS/1% pen-strep) and were plated in white walled 96-well plates at 20,000 cells/well. H1048 cells were cultured in DMEM:F12 media supplemented with 5% fetal bovine serum, insulin, transferrin, sodium selenite, hydrocortisone, β-estradiol, penicillin and streptomycin, and were plated in white walled 96-well plates at 20,000 cells/well. MDA-MB-231 cells were cultured in DMEM media supplemented with 10% fetal bovine serum, penicillin and streptomycin, and were plated in white walled 96-well plates at 10,000 cells/well. Cells were treated with compound or DMSO (0.1%, control) and the cultures were incubated for 3 days at 37° C. and 5% CO2. Following the incubation period, 100 μL of CellTiterGlow (CTG) reagent (CellTiter-Glo® Luminescent Cell Viability Assay, Promega (Madison, Wis.)) was added to each well. Following a 10 min incubation with shaking, luminescence was measured using a Victor Wallac Luminometer.

[5] = system: H1048 cells; test: H1048 cell viability (CellTiter-Glo); assay type: cell-based; settings: Homo sapiens, NCI-H1048, 72 h, H1048, 3 days, DMSO = 100.00; for viability at 1 µM: 1 μM compound concentration; for viability at 10 µM: 10 μM compound concentration
Procedure: FIG. 10A is a graph showing antiproliferative activity in H1048 (SCLC) cells. FIG. 10B is a graph showing antiproliferative activity in Molm-13 (AML) cells. In FIGS. 10A and 10B, the cells were incubated for 72 hrs with Compound 9 at the indicated concentrations or DMSO. Compound activity was measured based on the signal from remaining viable cells.
as §1

[6] = system: TNF-α; test: TNF-α expression in LPS stimulated PBMCs (Meso Scale); assay type: cell-based, human; settings: Homo sapiens, PBMC; for inhibition at 1 µM: compound concentration 1 μM; for inhibition at 10 µM: compound concentration 10 μM
Method in brief: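 Thawed primary human PBMCs, 200,000 cells/well in RPMI-1640/10% FBS, pretreated with compound 1 h, then stimulated with 100 ng/mL LPS for 18-24 h. Supernatant TNF-α measured by Meso Scale assay; activity expressed as percentage of LPS-induced level, DMSO as negative control.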

[7] = system: IL-1β; test: IL-1β expression in LPS stimulated PBMCs (Meso Scale); assay type: cell-based, human; settings: Homo sapiens, PBMC; for inhibition at 1 µM: compound concentration 1 μM; for inhibition at 10 µM: compound concentration 10 μM
Method in brief: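 Human PBMCs (200,000 cells/well in RPMI-1640/10% FBS) were pretreated with compound for 1 h, then stimulated with 100 ng/mL LPS for 18-24 h. IL-1β in supernatant was measured by Meso Scale assay. Activity is expressed as percentage of LPS-induced level, with DMSO-treated wells as negative control.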

[8] = system: IL-2; test: anti-CD3-induced IL-2 secretion in PBMCs; assay type: cell-based; settings: Homo sapiens, PBMC, anti-CD3 stimulated PBMCs, 24 h, DMSO = 1.0, read-out: Fold Change IL-2; for fold induction at 1 µM: compound concentration 1 μM; for fold induction at 10 µM: compound concentration 10 μM
Procedure: FIGS. 4 and 9D are graphs showing anti-CD3-induced IL-2 secretion in PBMCs. 1 ug/mL anti-CD3 (OKT-3) antibody in PBS were coated onto 96-well plates overnight at 4° C. Approximately 550,000 PBMCs were added to each well, followed by addition of DMSO only, Compound 1-8 at 10 μM (FIG. 4) or Compound 9 at 0.1 μM or 1 μM (FIG. 9D), or 10 μM lenalidomide (rev). Induction was measured after 24 h as fold difference from the DMSO stimulated control.
For the IL-2 analysis, 96 well plates were precoated with 1 ug/mL anti-human CD3 antibody (OKT3, eBioscience Inc.). After washing with PBS, compounds were added to the wells (50 μL/well) followed by PBMCs diluted at 3-4 million cells/mL (150 μL/well). Plates were incubated for 24 h and the supernatants collected for Mesoscale IL-2 analysis.
Compound activity was measured as fold difference from the DMSO control. IL-1-beta activity is shown in FIG. 1; IL-6 activity is shown in FIG. 2; TNF-α activity is shown in FIG. 3; and IL-2 activity is shown in FIG. 4.

T1 sequence (P15170 whole entry): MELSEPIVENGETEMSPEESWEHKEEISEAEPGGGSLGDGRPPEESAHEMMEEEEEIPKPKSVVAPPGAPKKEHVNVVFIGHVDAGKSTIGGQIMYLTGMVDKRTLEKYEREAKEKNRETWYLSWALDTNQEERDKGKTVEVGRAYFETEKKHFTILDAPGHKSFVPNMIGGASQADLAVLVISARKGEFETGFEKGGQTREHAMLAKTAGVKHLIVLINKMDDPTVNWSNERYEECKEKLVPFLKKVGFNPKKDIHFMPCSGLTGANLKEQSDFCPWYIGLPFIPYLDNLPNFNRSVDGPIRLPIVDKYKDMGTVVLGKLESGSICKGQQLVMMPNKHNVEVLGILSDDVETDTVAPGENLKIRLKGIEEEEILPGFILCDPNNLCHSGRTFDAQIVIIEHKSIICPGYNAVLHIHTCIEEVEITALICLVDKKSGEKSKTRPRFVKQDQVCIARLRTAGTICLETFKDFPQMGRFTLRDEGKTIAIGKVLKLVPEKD
T1 sequence (Q96SW2 whole entry, further chain): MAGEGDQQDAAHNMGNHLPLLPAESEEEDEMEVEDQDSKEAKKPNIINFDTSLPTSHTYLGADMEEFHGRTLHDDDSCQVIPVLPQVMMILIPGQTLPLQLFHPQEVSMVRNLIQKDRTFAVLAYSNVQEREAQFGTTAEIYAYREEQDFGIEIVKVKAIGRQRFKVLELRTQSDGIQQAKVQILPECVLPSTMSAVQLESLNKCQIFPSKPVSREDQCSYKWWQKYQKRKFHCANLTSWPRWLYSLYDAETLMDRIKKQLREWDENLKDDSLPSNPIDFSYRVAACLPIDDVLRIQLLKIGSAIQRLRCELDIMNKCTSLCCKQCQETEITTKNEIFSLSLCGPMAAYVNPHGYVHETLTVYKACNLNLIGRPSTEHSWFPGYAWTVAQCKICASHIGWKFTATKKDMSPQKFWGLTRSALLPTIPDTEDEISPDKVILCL
T1 sequence (Q16531 whole entry partner): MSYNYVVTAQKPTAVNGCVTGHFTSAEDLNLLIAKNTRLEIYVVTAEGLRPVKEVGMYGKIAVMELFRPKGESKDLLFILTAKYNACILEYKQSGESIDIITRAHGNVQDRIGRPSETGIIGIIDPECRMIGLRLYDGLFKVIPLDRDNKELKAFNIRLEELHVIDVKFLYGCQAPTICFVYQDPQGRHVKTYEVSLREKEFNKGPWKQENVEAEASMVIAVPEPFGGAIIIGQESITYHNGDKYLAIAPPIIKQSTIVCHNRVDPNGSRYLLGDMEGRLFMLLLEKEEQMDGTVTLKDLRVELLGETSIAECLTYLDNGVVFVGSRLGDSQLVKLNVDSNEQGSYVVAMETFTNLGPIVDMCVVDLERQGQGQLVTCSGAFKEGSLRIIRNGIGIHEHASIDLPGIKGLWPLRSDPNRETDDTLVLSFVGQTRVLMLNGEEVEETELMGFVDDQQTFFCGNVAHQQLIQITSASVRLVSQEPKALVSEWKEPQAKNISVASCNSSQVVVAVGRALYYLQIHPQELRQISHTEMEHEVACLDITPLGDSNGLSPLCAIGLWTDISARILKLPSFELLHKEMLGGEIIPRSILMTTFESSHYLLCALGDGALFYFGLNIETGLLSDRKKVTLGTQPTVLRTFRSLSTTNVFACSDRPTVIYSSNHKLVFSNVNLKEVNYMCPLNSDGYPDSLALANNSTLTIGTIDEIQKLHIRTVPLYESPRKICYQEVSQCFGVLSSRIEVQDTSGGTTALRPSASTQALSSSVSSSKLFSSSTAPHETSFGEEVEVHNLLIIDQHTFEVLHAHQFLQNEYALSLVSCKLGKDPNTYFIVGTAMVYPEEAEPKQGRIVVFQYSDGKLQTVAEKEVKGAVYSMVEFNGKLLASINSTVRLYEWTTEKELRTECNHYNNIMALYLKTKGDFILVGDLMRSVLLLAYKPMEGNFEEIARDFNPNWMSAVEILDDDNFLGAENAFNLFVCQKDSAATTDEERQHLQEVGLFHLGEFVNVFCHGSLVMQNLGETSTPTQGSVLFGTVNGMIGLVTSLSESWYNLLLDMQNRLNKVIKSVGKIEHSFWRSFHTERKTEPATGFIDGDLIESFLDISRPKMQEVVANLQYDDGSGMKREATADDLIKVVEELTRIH

| Structure (SMILES) | remaining activity at 0.1 µM [2] [%] | remaining activity at 1 µM [2] [%] | viability at 1 µM [4] [%] | viability at 10 µM [4] [%] | viability at 1 µM [5] [%] | viability at 10 µM [5] [%] | cytotoxicity at 10 µM [1] [%] | inhibition at 1 µM [3] [%] | inhibition at 1 µM [6] [%] | inhibition at 1 µM [7] [%] | fold induction at 1 µM [8] | inhibition at 10 µM [3] [%] | inhibition at 10 µM [6] [%] | inhibition at 10 µM [7] [%] | fold induction at 10 µM [8] | also measured |
| --- | --- | --- | --- | --- | --- | --- | --- | --- | --- | --- | --- | --- | --- | --- | --- | --- |
| O=C1CCC[C@H](N2Cc3c(csc3CNC(=O)Nc3ccc(C(F)(F)F)c(Cl)c3)C2=O)C(=O)N1 [Compound 32, (S)-1-(3-Chloro-4-(trifluoromethyl)phenyl)-3-((5-(2,7-dioxoazepan-3-yl)-4-oxo-5,6-dihydro-4H-thieno[3,4-c]pyrrol-1-yl)methyl)urea] | 61.7 | 29.3 | 91.2 | 44.3 | 10.6 | 10.8 |  |  |  |  |  |  |  |  |  | cytotoxicity at 0.5 µM ([1]; compound concentration 0.5 μM): 25%; inhibition at 0.1 µM ([3]; compound concentration 0.1 μM): 65%; inhibition at 0.1 µM ([6]; compound concentration 0.1 μM): 62%; inhibition at 0.1 µM ([7]; compound concentration 0.1 μM): 67%; fold induction at 0.1 µM ([8]; compound concentration 0.1 μM): 0.8 |
| Cc1ccc(NC(=O)NCc2cc3c(s2)C(=O)N([C@H]2CCCC(=O)NC2=O)C3)cc1Cl [Compound 35, (S)-1-(3-Chloro-4-methylphenyl)-3-((5-(2,7-dioxoazepan-3-yl)-6-oxo-5,6-dihydro-4H-thieno[2,3-c]pyrrol-2-yl)methyl)urea] | 112 | 44.5 | 99 | 64.8 | 15.5 | 12.4 | 93 | 16 | 39 | 44 | 1.4 |  |  |  |  |  |
| Cc1ccc(NC(=S)NCc2scc3c2CN([C@H]2CCCC(=O)NC2=O)C3=O)cc1Cl [Compound 41] | 55.2 | 6.4 | 58.2 | 30 | 9.42 | 9.37 |  | 95 | 90 | 89 | 0.3 |  |  |  |  | cytotoxicity at 0.3 µM [1]: 50% |
| Cc1ccc(NC(=O)NCc2scc3c2CN([C@H]2CCCC(=O)NC2=O)C3=O)cc1C(F)(F)F [Compound 38, (S)-1-((5-(2,7-Dioxoazepan-3-yl)-4-oxo-5,6-dihydro-4H-thieno[3,4-c]pyrrol-1-yl)methyl)-3-(4-methyl-3-(trifluoromethyl)phenyl)urea] | 49 | 5.52 | 54.7 | 27.6 | 8.35 | 7.89 |  | 94 | 87 | 84 | 0.6 |  |  |  |  | cytotoxicity at 0.3 µM [1]: 50% |
| Cc1ccc(NC(=O)NCc2scc3c2CN([C@H]2CCCC(=O)NC2=O)C3=O)cc1Cl [Compound 30, (S)-1-(3-Chloro-4-methylphenyl)-3-((5-(2,7-dioxoazepan-3-yl)-4-oxo-5,6-dihydro-4H-thieno[3,4-c]pyrrol-1-yl)methyl)urea] | 42.7 | 5.28 | 52.9 | 26.3 | 8.55 | 8.34 |  | 98 | 84 | 81 | 0.4 |  |  |  |  | cytotoxicity at 1 µM ([1]; compound concentration 1 μM): 50% |
| O=C1CCC(N2Cc3sccc3C2=O)C(=O)N1 (centres unmarked) [Compound 21, 3-(4-Oxo-4H-thieno[2,3-c]pyrrol-5(6H)-yl)piperidine-2,6-dione] |  |  |  |  |  |  | 16 |  |  |  |  | 73 | 74 | 74 | 2.9 |  |
| CC(C)c1scc2c1CN([C@H]1CCCC(=O)NC1=O)C2=O [Compound 12, (S)-3-(1-Isopropyl-4-oxo-4H-thieno[3,4-c]pyrrol-5(6H)-yl)azepane-2,7-dione] |  |  |  |  |  |  | 31 |  |  |  |  | 0 | 56 | 52 | 0.8 |  |
| Cc1scc2c1CN([C@H]1CCCCNC1=O)C2=O [Compound 28, (S)-1-Methyl-5-(2-oxoazepan-3-yl)-5,6-dihydro-4H-thieno[3,4-c]pyrrol-4-one] |  |  |  |  |  |  | 0 |  |  |  |  | 9 | 0 | 0 | 0.9 |  |
| N#Cc1scc2c1CN([C@H]1CCCC(=O)NC1=O)C2=O [Compound 17, (S)-5-(2,7-Dioxoazepan-3-yl)-4-oxo-5,6-dihydro-4H-thieno[3,4-c]pyrrole-1-carbonitrile] |  |  |  |  |  |  | 21 |  |  |  |  | 14 | 26 | 4 | 1 |  |
| Cc1sc(Cl)c2c1CN([C@H]1CCCC(=O)NC1=O)C2=O [Compound 25, (S)-3-(3-Chloro-1-methyl-4-oxo-4H-thieno[3,4-c]pyrrol-5(6H)-yl)azepane-2,7-dione] |  |  |  |  |  |  | 20 |  |  |  |  | 22 | 41 | 45 | 1.3 |  |
